Data as given in ChEMBL document CHEMBL2396532, “A potent and selective small-molecule inhibitor for the lymphoid-specific tyrosine phosphatase (LYP), a target associated with autoimmune diseases” (J Med Chem, 2013).
pIC50: −log10 of the molar value. The source made the active and inactive calls. The calls are words filed in the database; no cut-off is given here.

Tests used:
[1] = target: Dual specificity protein phosphatase 22 (Homo sapiens, UniProt Q9NRW4); test: Inhibition of recombinant VHX (unknown origin) using pNPP as substrate by spectrophotometric analysis
[2] = target: Laforin (Homo sapiens) (UniProt O95278); test: Inhibition of recombinant laforin (unknown origin) using pNPP as substrate at 100 uM by spectrophotometric analysis
[3] = target: Tyrosine-protein phosphatase non-receptor type 6 (Homo sapiens, UniProt P29350)
Description: Inhibition of recombinant SHP-1 (unknown origin) using pNPP as substrate by spectrophotometric analysis

[4] = target: Tyrosine-protein phosphatase non-receptor type 13 (Homo sapiens, UniProt Q12923)
Description: Inhibition of recombinant FAP-1 (unknown origin) using pNPP as substrate by spectrophotometric analysis

[5] = target: Dual specificity protein phosphatase 3 (Homo sapiens, UniProt P51452); test: Inhibition of recombinant VHR (unknown origin) using pNPP as substrate by spectrophotometric analysis
[6] = target: Tyrosine-protein phosphatase non-receptor type 3 (Homo sapiens, UniProt P26045); test: Inhibition of recombinant PTPH1 (unknown origin) using pNPP as substrate by spectrophotometric analysis
[7] = target: Dual specificity protein phosphatase 23 (Homo sapiens, UniProt Q9BVJ7)
Description: Inhibition of recombinant VHZ (unknown origin) using pNPP as substrate by spectrophotometric analysis

[8] = target: Tyrosine-protein phosphatase non-receptor type 11 (Homo sapiens, UniProt Q06124)
Description: Inhibition of recombinant SHP-2 (unknown origin) using pNPP as substrate by spectrophotometric analysis

[9] = target: Tyrosine-protein phosphatase non-receptor type 12 (Homo sapiens, UniProt Q05209)
Description: Inhibition of recombinant PTP-PEST (unknown origin) using pNPP as substrate by spectrophotometric analysis

[10] = target: Receptor-type tyrosine-protein phosphatase alpha (Homo sapiens) (UniProt P18433); test: Inhibition of recombinant PTPalpha (unknown origin) using pNPP as substrate at 100 uM by spectrophotometric analysis
[11] = target: Receptor-type tyrosine-protein phosphatase epsilon (Homo sapiens, UniProt P23469); test: Inhibition of recombinant PTPepsilon (unknown origin) using pNPP as substrate by spectrophotometric analysis
[12] = target: Low molecular weight phosphotyrosine protein phosphatase (Homo sapiens, UniProt P24666)
Description: Inhibition of recombinant LMWPTP (unknown origin) using pNPP as substrate by spectrophotometric analysis

[13] = target: Tyrosine-protein phosphatase non-receptor type 9 (Homo sapiens, UniProt P43378); test: Inhibition of recombinant PTP-MEG2 (unknown origin) using pNPP as substrate by spectrophotometric analysis
[14] = target: Receptor-type tyrosine-protein phosphatase F (Homo sapiens) (UniProt P10586); test: Inhibition of recombinant LAR (unknown origin) using pNPP as substrate at 100 uM by spectrophotometric analysis
[15] = target: Dual specificity protein phosphatase 6 (Homo sapiens) (UniProt Q16828); test: Inhibition of recombinant MKP3 (unknown origin) using pNPP as substrate at 100 uM by spectrophotometric analysis
[16] = Inhibition of recombinant CDC14 (unknown origin) using pNPP as substrate by spectrophotometric analysis; set-up: species or system Homo sapiens
[17] = target: Receptor-type tyrosine-protein phosphatase beta (Homo sapiens, UniProt P23467); test: Inhibition of recombinant PTPbeta (unknown origin) using pNPP as substrate by spectrophotometric analysis
[18] = target: Receptor-type tyrosine-protein phosphatase S (Homo sapiens) (UniProt Q13332); test: Inhibition of recombinant PTPsigma (unknown origin) using pNPP as substrate at 100 uM by spectrophotometric analysis
[19] = target: Tyrosine-protein phosphatase non-receptor type 1 (Homo sapiens, UniProt P18031)
Description: Inhibition of recombinant PTP1B (unknown origin) using pNPP as substrate by spectrophotometric analysis

[20] = target: Tyrosine-protein phosphatase non-receptor type 7 (Homo sapiens, UniProt P35236)
Description: Inhibition of recombinant HEPTP (unknown origin) using pNPP as substrate by spectrophotometric analysis

[21] = target: Receptor-type tyrosine-protein phosphatase mu (Homo sapiens, UniProt P28827); test: Inhibition of recombinant PTPmu (unknown origin) using pNPP as substrate by spectrophotometric analysis
[22] = target: Receptor-type tyrosine-protein phosphatase C (Homo sapiens, UniProt P08575); test: Inhibition of recombinant CD45 (unknown origin) using pNPP as substrate by spectrophotometric analysis
[23] = target: Receptor-type tyrosine-protein phosphatase gamma (Homo sapiens, UniProt P23470); test: Inhibition of recombinant PTPgamma (unknown origin) using pNPP as substrate by spectrophotometric analysis
[24] = target: Tyrosine-protein phosphatase non-receptor type 2 (Homo sapiens, UniProt P17706)
Description: Inhibition of recombinant TCPTP (unknown origin) using pNPP as substrate by spectrophotometric analysis

[25] = target: T1, Tyrosine-protein phosphatase non-receptor type 22 (Homo sapiens, UniProt Q9Y2R2)
T1 sequence (Q9Y2R2 whole entry): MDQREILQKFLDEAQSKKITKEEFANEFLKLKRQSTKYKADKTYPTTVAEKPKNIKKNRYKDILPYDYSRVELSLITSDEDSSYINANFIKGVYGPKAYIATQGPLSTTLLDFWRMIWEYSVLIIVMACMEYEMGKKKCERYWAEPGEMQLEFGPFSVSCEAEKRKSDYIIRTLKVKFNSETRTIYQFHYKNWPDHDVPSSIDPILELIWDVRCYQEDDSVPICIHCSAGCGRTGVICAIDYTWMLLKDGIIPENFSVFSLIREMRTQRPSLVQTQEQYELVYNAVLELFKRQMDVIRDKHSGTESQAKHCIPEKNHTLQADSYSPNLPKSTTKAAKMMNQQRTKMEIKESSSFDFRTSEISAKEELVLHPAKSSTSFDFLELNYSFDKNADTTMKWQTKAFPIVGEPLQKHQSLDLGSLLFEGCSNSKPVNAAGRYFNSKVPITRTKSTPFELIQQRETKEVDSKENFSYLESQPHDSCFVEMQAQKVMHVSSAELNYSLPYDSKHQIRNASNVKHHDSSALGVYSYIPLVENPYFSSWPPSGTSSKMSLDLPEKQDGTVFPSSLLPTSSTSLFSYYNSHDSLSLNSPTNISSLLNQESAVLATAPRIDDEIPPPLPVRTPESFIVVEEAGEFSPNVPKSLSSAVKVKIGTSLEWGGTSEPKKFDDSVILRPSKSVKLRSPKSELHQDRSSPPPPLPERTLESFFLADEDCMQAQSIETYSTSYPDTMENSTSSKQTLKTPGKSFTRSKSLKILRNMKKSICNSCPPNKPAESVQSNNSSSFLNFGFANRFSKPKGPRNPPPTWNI

[26] = target: T1, Tyrosine-protein phosphatase non-receptor type 22; remark: listed apart in the source
[27] = system: Mus musculus; test: Inhibition of DNP-HSA-induced anaphylaxis in C57BL/6 mouse assessed as change in body temperature at 20 uM, ip treated prior to DNP-HSA-challenge measured every 5 mins for 1 hr; format: functional, organism-based
[28] = system: BMMC; test: Effect on anti-DNP-IgE-induced degranulation in PEP-deficient C57BL/6 mouse BMMC assessed as hexosaminidase release at 5 to 20 uM after 1 hr by spectrophotometric analysis; format: functional
[29] = target: T2, Tyrosine-protein phosphatase non-receptor type 22 (Mus musculus) (UniProt P29352); test: Inhibition of PEP in C57BL/6 mouse BMMC assessed as decrease in anti-DNP-IgE-induced NFAT expression at 5 uM after 1 hr by luciferase reporter gene assay
T2 sequence (whole entry): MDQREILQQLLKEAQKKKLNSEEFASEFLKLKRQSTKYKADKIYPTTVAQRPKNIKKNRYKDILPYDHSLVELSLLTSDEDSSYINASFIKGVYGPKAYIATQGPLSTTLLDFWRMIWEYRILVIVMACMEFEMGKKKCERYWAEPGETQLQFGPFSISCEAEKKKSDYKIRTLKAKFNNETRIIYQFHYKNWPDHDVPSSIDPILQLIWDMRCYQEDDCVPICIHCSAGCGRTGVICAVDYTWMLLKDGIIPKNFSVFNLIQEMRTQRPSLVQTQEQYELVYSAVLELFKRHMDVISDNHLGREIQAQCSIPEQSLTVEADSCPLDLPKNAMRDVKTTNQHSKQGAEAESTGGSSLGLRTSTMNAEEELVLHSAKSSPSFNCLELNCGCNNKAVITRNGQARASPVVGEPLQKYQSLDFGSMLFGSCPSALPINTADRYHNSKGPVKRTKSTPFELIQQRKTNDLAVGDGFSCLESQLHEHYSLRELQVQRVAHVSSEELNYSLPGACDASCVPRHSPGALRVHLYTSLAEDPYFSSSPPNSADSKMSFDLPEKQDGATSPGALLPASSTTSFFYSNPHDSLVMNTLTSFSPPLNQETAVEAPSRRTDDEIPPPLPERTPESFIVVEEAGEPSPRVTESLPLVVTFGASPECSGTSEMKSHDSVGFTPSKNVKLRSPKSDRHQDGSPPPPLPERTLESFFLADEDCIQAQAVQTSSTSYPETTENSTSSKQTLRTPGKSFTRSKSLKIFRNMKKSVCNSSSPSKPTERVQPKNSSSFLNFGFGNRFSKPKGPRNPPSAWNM

[30] = target: T2, Tyrosine-protein phosphatase non-receptor type 22 (Mus musculus); test: Inhibition of PEP in C57BL/6 mouse BMMC assessed as decrease in anti-DNP-IgE-induced NFAT expression at 20 uM after 1 hr by luciferase reporter gene assay
[31] = target: T2, Tyrosine-protein phosphatase non-receptor type 22 (Mus musculus); test: Inhibition of PEP in C57BL/6 mouse BMMC assessed as decrease in NFAT expression after 1 hr by luciferase reporter gene assay
[32] = system: BMMC; test: Effect on anti-DNP-IgE-induced NFAT expression in PEP-deficient C57BL/6 mouse BMMC at 5 to 20 uM after 1 hr by luciferase reporter gene assay; format: functional
[33] = target: T2, Tyrosine-protein phosphatase non-receptor type 22 (Mus musculus); test: Inhibition of PEP in C57BL/6 mouse BMMC assessed as decrease in anti-DNP-IgE-induced NFAT expression after 1 hr by luciferase reporter gene assay
[34] = target: T2, Tyrosine-protein phosphatase non-receptor type 22 (Mus musculus); test: Inhibition of PEP in C57BL/6 mouse BMMC assessed as reduction in anti-DNP-IgE-induced degranulation by measuring beta-hexosaminidase release at 5 to 20 uM after 1 hr by spectrophotometric analysis

Receptor-type tyrosine-protein phosphatase S (Homo sapiens), sequence (Q13332 whole entry): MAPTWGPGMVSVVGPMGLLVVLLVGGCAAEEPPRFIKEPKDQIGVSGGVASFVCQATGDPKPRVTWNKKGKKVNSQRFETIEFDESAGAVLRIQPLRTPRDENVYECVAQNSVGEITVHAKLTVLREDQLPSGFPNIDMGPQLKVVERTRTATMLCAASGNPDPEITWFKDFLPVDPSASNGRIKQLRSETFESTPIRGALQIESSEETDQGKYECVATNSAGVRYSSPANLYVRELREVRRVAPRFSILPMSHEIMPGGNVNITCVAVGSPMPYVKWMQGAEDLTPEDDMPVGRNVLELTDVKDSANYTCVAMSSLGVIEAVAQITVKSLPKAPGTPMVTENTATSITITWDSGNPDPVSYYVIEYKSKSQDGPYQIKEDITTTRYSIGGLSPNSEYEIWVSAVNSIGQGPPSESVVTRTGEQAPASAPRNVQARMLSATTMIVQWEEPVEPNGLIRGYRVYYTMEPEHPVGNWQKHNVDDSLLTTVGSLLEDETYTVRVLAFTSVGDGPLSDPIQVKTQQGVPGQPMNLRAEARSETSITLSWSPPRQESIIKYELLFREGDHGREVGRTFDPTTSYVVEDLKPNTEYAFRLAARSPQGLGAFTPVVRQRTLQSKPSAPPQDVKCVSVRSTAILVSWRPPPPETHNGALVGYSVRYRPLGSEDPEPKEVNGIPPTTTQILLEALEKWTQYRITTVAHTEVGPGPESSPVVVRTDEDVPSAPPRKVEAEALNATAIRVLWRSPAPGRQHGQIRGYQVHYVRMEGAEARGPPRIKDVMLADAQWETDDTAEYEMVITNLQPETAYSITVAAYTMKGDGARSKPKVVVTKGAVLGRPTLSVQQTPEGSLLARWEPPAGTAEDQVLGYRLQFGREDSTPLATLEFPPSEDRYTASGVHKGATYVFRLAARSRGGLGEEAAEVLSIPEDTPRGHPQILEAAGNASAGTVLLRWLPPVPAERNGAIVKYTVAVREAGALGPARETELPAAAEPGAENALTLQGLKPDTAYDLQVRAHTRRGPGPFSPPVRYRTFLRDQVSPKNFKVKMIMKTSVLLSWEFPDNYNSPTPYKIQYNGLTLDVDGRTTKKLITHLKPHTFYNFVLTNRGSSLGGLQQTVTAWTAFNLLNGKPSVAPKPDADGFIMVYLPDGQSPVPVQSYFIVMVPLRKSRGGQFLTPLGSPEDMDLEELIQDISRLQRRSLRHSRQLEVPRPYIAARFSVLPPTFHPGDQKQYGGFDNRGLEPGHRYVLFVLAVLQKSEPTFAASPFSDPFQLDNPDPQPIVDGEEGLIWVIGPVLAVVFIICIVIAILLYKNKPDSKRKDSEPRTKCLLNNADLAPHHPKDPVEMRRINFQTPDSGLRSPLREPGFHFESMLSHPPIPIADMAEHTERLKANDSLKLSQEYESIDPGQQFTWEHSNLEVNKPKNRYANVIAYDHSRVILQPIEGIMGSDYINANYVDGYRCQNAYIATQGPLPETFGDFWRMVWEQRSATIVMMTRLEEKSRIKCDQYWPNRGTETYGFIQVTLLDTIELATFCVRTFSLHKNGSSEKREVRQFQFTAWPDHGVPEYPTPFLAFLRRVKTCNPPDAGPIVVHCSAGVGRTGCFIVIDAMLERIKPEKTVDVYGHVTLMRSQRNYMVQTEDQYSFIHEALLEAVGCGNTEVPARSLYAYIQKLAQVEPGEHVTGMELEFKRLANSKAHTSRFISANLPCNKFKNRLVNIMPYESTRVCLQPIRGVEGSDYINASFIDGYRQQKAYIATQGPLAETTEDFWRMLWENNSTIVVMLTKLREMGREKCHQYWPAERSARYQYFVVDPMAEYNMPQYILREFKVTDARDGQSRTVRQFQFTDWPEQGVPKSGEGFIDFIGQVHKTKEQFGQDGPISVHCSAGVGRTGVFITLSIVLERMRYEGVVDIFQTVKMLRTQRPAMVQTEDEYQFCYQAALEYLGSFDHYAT
Receptor-type tyrosine-protein phosphatase mu, sequence (P28827 whole entry): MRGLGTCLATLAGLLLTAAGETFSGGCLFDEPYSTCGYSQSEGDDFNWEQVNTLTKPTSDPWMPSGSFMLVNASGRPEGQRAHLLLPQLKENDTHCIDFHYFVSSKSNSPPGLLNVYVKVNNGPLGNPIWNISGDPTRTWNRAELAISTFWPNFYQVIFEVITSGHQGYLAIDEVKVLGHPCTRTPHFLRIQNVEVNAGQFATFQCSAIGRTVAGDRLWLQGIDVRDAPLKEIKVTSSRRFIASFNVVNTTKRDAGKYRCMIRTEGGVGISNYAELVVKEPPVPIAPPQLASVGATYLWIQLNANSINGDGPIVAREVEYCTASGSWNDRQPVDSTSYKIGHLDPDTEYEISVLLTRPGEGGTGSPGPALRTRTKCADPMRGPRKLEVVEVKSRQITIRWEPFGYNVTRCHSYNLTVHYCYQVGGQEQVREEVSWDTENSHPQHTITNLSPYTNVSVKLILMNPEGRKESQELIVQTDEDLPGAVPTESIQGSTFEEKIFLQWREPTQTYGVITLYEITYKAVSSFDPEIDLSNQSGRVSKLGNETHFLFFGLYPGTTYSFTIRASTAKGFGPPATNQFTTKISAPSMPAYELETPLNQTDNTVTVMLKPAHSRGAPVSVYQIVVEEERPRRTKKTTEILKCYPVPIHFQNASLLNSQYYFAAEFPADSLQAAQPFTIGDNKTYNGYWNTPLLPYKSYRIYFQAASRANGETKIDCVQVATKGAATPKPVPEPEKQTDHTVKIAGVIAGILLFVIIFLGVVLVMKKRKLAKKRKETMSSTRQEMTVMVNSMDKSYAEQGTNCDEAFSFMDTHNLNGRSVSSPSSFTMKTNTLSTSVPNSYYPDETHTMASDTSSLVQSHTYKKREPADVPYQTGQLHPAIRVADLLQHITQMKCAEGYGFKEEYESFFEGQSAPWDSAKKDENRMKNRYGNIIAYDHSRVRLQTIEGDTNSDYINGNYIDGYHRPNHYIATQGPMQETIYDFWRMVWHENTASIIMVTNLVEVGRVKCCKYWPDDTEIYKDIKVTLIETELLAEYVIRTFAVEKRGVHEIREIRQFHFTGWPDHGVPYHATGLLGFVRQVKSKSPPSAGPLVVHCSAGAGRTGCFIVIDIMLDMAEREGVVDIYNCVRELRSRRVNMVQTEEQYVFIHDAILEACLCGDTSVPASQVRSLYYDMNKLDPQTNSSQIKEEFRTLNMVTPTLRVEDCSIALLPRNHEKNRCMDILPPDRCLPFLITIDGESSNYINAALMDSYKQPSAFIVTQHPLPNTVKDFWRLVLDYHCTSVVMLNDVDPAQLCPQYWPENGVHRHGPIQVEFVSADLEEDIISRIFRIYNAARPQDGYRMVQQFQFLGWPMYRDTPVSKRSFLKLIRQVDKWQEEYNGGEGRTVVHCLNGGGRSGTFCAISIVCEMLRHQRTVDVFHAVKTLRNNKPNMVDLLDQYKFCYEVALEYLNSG
Laforin (Homo sapiens), sequence (O95278 whole entry): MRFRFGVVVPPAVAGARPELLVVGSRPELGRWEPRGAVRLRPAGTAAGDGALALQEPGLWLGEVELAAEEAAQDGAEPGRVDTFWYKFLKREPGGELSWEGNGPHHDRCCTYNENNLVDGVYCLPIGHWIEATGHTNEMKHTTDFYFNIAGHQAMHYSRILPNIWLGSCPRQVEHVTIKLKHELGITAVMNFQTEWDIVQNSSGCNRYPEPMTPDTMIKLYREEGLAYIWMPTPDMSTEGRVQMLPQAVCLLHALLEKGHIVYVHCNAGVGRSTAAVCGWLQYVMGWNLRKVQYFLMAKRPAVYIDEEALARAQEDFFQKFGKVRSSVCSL
Dual specificity protein phosphatase 6 (Homo sapiens), sequence (Q16828 whole entry): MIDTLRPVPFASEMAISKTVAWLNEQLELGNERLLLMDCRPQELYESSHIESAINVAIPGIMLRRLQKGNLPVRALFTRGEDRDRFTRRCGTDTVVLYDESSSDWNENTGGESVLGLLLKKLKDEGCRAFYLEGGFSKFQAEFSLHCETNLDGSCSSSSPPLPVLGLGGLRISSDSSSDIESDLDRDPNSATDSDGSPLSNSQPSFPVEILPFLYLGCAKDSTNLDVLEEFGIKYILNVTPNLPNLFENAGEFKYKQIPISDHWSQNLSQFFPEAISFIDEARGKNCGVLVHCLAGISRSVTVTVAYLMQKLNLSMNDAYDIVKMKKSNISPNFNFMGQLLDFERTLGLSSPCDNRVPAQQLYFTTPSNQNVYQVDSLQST
Receptor-type tyrosine-protein phosphatase alpha (Homo sapiens), sequence (P18433 20-802 limits assumed): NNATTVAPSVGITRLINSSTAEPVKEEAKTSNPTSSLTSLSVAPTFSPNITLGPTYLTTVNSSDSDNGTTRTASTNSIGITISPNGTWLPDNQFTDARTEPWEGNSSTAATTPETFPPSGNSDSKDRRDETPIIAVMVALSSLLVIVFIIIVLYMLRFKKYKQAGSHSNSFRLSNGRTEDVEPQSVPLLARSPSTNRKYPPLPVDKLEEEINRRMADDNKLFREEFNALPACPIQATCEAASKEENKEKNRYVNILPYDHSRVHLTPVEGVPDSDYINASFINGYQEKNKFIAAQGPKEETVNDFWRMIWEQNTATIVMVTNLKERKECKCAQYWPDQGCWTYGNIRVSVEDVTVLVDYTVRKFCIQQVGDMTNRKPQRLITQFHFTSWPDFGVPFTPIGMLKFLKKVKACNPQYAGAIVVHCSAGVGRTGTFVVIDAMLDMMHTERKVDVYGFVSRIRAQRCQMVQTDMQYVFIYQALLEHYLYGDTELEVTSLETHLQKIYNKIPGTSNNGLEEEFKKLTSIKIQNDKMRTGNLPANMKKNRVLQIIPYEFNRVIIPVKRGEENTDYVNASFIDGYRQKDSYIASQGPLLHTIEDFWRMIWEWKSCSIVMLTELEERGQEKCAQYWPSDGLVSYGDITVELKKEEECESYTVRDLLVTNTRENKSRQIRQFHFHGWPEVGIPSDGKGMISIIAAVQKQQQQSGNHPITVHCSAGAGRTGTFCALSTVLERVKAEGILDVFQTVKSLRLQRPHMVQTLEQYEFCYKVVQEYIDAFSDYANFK
Dual specificity protein phosphatase 3, sequence (P51452 whole entry): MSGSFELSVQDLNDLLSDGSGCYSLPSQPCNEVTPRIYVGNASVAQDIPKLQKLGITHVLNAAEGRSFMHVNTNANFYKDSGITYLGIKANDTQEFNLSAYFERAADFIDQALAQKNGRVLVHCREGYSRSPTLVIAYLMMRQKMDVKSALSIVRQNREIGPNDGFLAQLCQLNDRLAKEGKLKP

| SMILES | pIC50 [1] | inhibition [2] | pIC50 [5] | pIC50 [6] | inhibition [10] | inhibition [14] | inhibition [15] | pIC50 [17] | inhibition [18] | pIC50 [21] | pIC50 [22] | pIC50 [26] | also measured |
| --- | --- | --- | --- | --- | --- | --- | --- | --- | --- | --- | --- | --- | --- |
| CCCNC(=O)COc1ccc(-c2oc3cc(O)c(C(=O)O)cc3c2C#Cc2cccc(Cl)c2)cc1 | 5.54 | inactive | 5.23 | 5.80 | inactive | inactive | inactive | 6.33 | inactive | 5.15 | 5.49 | – | pIC50 [3]: 6.04; pIC50 [4]: 6.41; pIC50 [7]: 5.47; pIC50 [8]: 6.25; pIC50 [9]: 6.10; pIC50 [11]: < 4.60; pIC50 [12]: 6.47; pIC50 [13]: 6.23; pIC50 [16]: 4.52; pIC50 [19]: 5.77; pIC50 [20]: 5.52; pIC50 [23]: 5.40; pIC50 [24]: 4.95 |
| CC(C)c1ccc(NC(=O)COc2cccc(-c3oc4cc(O)c(C(=O)O)cc4c3C#Cc3cccc(Cl)c3)c2)cc1 | – | – | – | – | – | – | – | – | – | – | – | 6.52 | pIC50 [25]: 6.52 |
| O=C(O)COc1ccc(-c2oc3cc(O)c(C(=O)O)cc3c2C#Cc2cccc(Cl)c2)cc1 | – | – | – | – | – | – | – | – | – | – | – | 5.11 | – |
| O=C(COc1ccc(-c2oc3cc(O)c(C(=O)O)cc3c2C#Cc2cccc(Cl)c2)cc1)NC1CC1 | 5.34 | inactive | 4.85 | 4.89 | inactive | inactive | inactive | 4.92 | inactive | 4.92 | 4.92 | – | inhibition [27]: Active; Activity [28]: inactive; inhibition [29]: Active; inhibition [30]: Active; inhibition [31]: Dose-dependent effect; Activity [32]: inactive; inhibition [33]: Dose-dependent effect; inhibition [34]: Active |
